Laboratory results as given in paper PMC8491553 (ACS Medicinal Chemistry Letters, 2021).

molecular target: SARS-CoV-2 main protease (3CLpro) (Severe acute respiratory syndrome coronavirus 2, UniProt P0DTD1); format: biochemical

Question: Which “activity as main protease inhibitor (in words)” value does the source give for `Cn1nc(C(=O)N2CC3(C)CN(C(=O)c4nn(C)c5c4CCc4ccccc4-5)CC(C)(C2)C3=O)c2c1-c1ccccc1CC2` [Compound 2j] here?
Answer: Its value is “submicromolar range”.

Question: Which “activity as main protease inhibitor (in words)” value does the source give for `CC12CN(CC#N)CC(C)(CN(CC#N)C1)C2=O` [Compound 4l] here?
Answer: Its value is “lower micromolar range”.

Question: `CC(C)(C)OC(=O)Cn1cc(CN2CC3(C)CN(Cc4cn(CC(=O)OC(C)(C)C)nn4)CC(C)(C2)C3=O)nn1` [Compound 4p] was tested. Which “activity as main protease inhibitor (in words)” value did it give?
Answer: Its value is “lower micromolar range”.

Question: Which “activity as main protease inhibitor (in words)” value does the source give for `CC(C)(C)OC(=O)NCCn1cc(CN2CC3(C)CN(Cc4cn(CCNC(=O)OC(C)(C)C)nn4)CC(C)(C2)C3=O)nn1` [Compound 4q] here?
Answer: Its value is “submicromolar activity”.

Question: With `CC12CN(Cc3ccccc3)CC(C)(CN(Cc3ccccc3)C1)C2=O` [Compound 4d] as the compound, how does the “activity as main protease inhibitor (in words)” value read?
Answer: Its value is “submicromolar activity”.

Question: For `C#CCN1CC2(C)CN(CC#C)CC(C)(C1)C2=O` [Compound 4c], which “activity as main protease inhibitor (in words)” value is on record?
Answer: Its value is “lower micromolar range”.

Question: With `CC(C)Cc1ccc(C(C)C(=O)O)cc1` (stereo not shown) [Ibuprofen, reference compound] as the compound, how does the “activity as main protease inhibitor (in words)” value read?
Answer: Its value is “no activity at all”.

Question: How did the “activity as main protease inhibitor (in words)” value turn out when `CC12CN(Cc3cn(Cc4ccccc4)nn3)CC(C)(CN(Cc3cn(Cc4ccccc4)nn3)C1)C2=O` [Compound 4r] was run?
Answer: Its value is “lower micromolar range”.

Question: For `Cc1cc(CN2CC3(C)CN(Cc4cc(C)no4)CC(C)(C2)C3=O)on1` [Compound 4o], which “activity as main protease inhibitor (in words)” value is on record?
Answer: Its value is “lower micromolar range”.

Question: How did the “activity as main protease inhibitor (in words)” value turn out when `CC12CN(CC(=O)O)CC(C)(CN(CC(=O)O)C1)C2=O` [Compound 4m] was run?
Answer: The value was “lower micromolar range”.
